We go through 34 compounds from patent publication US8232401B2 (Japan Tobacco Inc., priority 2002, dated 2012).

In general, IC50 refers to the concentration at which inhibition is half-maximal.

This experiment deals with T1, HIV integrase (Human immunodeficiency virus type 1 group M subtype B, UniProt P12497, F1332H).
T1 construct: HIV integrase full length gene; made in house; host or cells: Escherichia coli BL21(DE3)
The experiment can be described thus: Determination of enzyme (HIV integrase) inhibitory activity (strand transfer, microtiter plate, absorbance at 450 nm). Format: biochemical, HIV (Human Immunodeficiency Virus (type 1)). Particulars: recombinant HIV integrase (F185H) expressed in E. coli; donor DNA on streptavidin plate, digoxigenin target DNA; 37° C.
`O=C(O)c1cn(C(CO)CO)c2ccc(Cc3cccc(Cl)c3Cl)cc2c1=O` [Example 3-10, 6-(2,3-Dichlorobenzyl)-1-[2-hydroxy-1-(hydroxymethyl)ethyl]-4-oxo-1,4-dihydroquinoline-3-carboxylic acid]: the IC50 was 18 nM.

As for `COc1cc2c(cc1Cc1cccc(Cl)c1F)c(=O)c(C(=O)O)cn2[C@H](CO)C(C)(C)C` [Example 4-33, (S)-6-(3-Chloro-2-fluorobenzyl)-1-[2,2-dimethyl-1-(hydroxymethyl)propyl]-7-methoxy-4-oxo-1,4-dihydroquinoline-3-carboxylic acid], the 50% inhibitory concentration (IC50) amounted to 2 nM.

With `O=C(O)c1cn(CCO)c2cc(OCC3CCCCC3)c(Cc3cccc(Cl)c3F)cc2c1=O` [Example 3-63, 6-(3-Chloro-2-fluorobenzyl)-7-cyclohexylmethoxy-1-(2-hydroxyethyl)-4-oxo-1,4-dihydroquinoline-3-carboxylic acid], the IC50 is 17 nM.

`CC(=O)Nc1cc(Cc2cccc(Cl)c2F)cc2c(=O)c(C(=O)O)cn(CCO)c12` [Example 3-39, 8-Acetylamino-6-(3-chloro-2-fluorobenzyl)-1-(2-hydroxyethyl)-4-oxo-1,4-dihydroquinoline-3-carboxylic acid]: the half-maximal inhibitory concentration (IC50) stood at 49 nM.

On to `CC[C@@H](CO)n1cc(C(=O)O)c(=O)c2cc(Cc3cccc(Cl)c3F)cc(OC)c21` [Example 3-79, (S)-6-(3-Chloro-2-fluorobenzyl)-1-[1-(hydroxymethyl)propyl]-8-methoxy-4-oxo-1,4-dihydroquinoline-3-carboxylic acid], for which the IC50 stood at 6.7 nM.

For the compound `O=C(O)c1cn(-c2ccccc2)c2ccc(Cc3cccc(Cl)c3Cl)cc2c1=O` [Example 3-9, 6-(2,3-Dichlorobenzyl)-4-oxo-1-phenyl-1,4-dihydroquinoline-3-carboxylic acid], the concentration for half-maximal inhibition (IC50) came out at 84 nM.

As for `O=C(O)c1cn(CCO)c2cc(N3CCCC3)c(Cc3cccc(Cl)c3F)cc2c1=O` [Example 3-66, 6-(3-Chloro-2-fluorobenzyl)-1-(2-hydroxyethyl)-4-oxo-7-pyrrolidin-1-yl-1,4-dihydroquinoline-3-carboxylic acid], the IC50 came to 48 nM.

Regarding `O=C(O)c1cn(CCO)c2ccc(Cc3cccc(F)c3F)cc2c1=O` [Example 1-50, 6-(2,3-Difluorobenzyl)-1-(2-hydroxyethyl)-4-oxo-1,4-dihydroquinoline-3-carboxylic acid], the IC50 was 110 nM.

Take `O=C(O)c1cn(CCO)c2ccc(Cc3cc(F)ccc3Cl)cc2c1=O` [Example 4-6, 6-(2-Chloro-5-fluorobenzyl)-1-(2-hydroxyethyl)-4-oxo-1,4-dihydroquinoline-3-carboxylic acid]: the IC50 was determined as 460 nM.

With `O=C(O)c1cn(Cc2ccccc2)c2ccc(Cc3cccc(Cl)c3Cl)cc2c1=O` [Example 1-15, 1-Benzyl-6-(2,3-dichlorobenzyl)-4-oxo-1,4-dihydroquinoline-3-carboxylic acid], the concentration for half-maximal inhibition (IC50) was determined as 230 nM.

As to `CN(C)S(=O)(=O)Cn1cc(C(=O)O)c(=O)c2cc(Cc3c(F)cccc3Cl)ccc21` [Example 1-77, 6-(2-Chloro-6-fluorobenzyl)-1-dimethylsulfamoylmethyl-4-oxo-1,4-dihydroquinoline-3-carboxylic acid], the IC50 was found to be 63 nM.

With `CCNn1cc(C(=O)O)c(=O)c2cc(Cc3cccc(Cl)c3Cl)ccc21` [Example 2-8, 6-(2,3-Dichlorobenzyl)-1-ethylamino-4-oxo-1,4-dihydroquinoline-3-carboxylic acid], the IC50 is 85 nM.

For `CC[C@@H](CO)n1cc(C(=O)O)c(=O)c2cc(Cc3cccc(Cl)c3F)c(OC(C)C)cc21` [Example 3-72, (S)-6-(3-Chloro-2-fluorobenzyl)-1-[1-(hydroxymethyl)propyl]-7-isopropyloxy-4-oxo-1,4-dihydroquinoline-3-carboxylic acid], the half-maximal inhibitory concentration (IC50) came out at 3.8 nM.

With `O=C(O)c1cn(CCO)c2ccc(Cc3ccc(F)c(Cl)c3F)cc2c1=O` [Example 3-17, 6-(3-Chloro-2,4-difluorobenzyl)-1-(2-hydroxyethyl)-4-oxo-1,4-dihydroquinoline-3-carboxylic acid], the half-maximal inhibitory concentration (IC50) is 13 nM.

Consider `NCCn1cc(C(=O)O)c(=O)c2cc(Cc3cccc(Cl)c3Cl)ccc21` [Example 1-46, 1-(2-Aminoethyl)-6-(2,3-dichlorobenzyl)-4-oxo-1,4-dihydroquinoline-3-carboxylic acid], for which the IC50 worked out at 420 nM.

On to `CCc1ccccc1Cc1ccc2c(c1)c(=O)c(C(=O)O)cn2CCO` [Example 4-4, 6-(2-Ethylbenzyl)-1-(2-hydroxyethyl)-4-oxo-1,4-dihydroquinoline-3-carboxylic acid], for which the half-inhibitory concentration (IC50) is 550 nM.

Turning to `O=C(O)c1cn(CCO)c2ccc(Cc3cc(O)ccc3Cl)cc2c1=O` [Example 4-11, 6-(2-Chloro-5-hydroxybenzyl)-1-(2-hydroxyethyl)-4-oxo-1,4-dihydroquinoline-3-carboxylic acid], the IC50 stood at 220 nM.

As to `CNn1cc(C(=O)O)c(=O)c2cc(Cc3cccc(Cl)c3Cl)ccc21` [Example 2-7, 6-(2,3-Dichlorobenzyl)-1-methylamino-4-oxo-1,4-dihydroquinoline-3-carboxylic acid], the half-inhibitory concentration (IC50) was found to be 79 nM.

As for `CCC[C@@H](CO)n1cc(C(=O)O)c(=O)c2cc(Cc3cccc(Cl)c3F)c(OC)cc21` [Example 4-38, (S)-6-(3-Chloro-2-fluorobenzyl)-1-[1-(hydroxymethyl)butyl]-7-methoxy-4-oxo-1,4-dihydroquinoline-3-carboxylic acid], the 50% inhibitory concentration (IC50) turned out to be 3.3 nM.

Consider `CC[C@@H](CO)n1cc(C(=O)O)c(=O)c2cc(Cc3cccc(Cl)c3F)cc(OC(C)C)c21` [Example 4-17, (S)-6-(3-Chloro-2-fluorobenzyl)-1-[1-(hydroxymethyl)propyl]-8-isopropyloxy-4-oxo-1,4-dihydroquinoline-3-carboxylic acid], for which the concentration for half-maximal inhibition (IC50) amounted to 3.1 nM.

With `CC(C)Oc1cc2c(cc1Cc1cccc(Cl)c1F)c(=O)c(C(=O)O)cn2[C@H](CO)C(C)(C)C` [Example 4-20, (S)-6-(3-Chloro-2-fluorobenzyl)-1-[2,2-dimethyl-1-(hydroxymethyl)propyl]-7-isopropyloxy-4-oxo-1,4-dihydroquinoline-3-carboxylic acid], the 50% inhibitory concentration (IC50) was 1.7 nM.

`Cn1cc(C(=O)O)c(=O)c2cc(Cc3cccc(Cl)c3Cl)ccc21` [Example 1-36, 6-(2,3-Dichlorobenzyl)-1-methyl-4-oxo-1,4-dihydroquinoline-3-carboxylic acid]: the IC50 was determined as 180 nM.

As for `CC[C@H](C)[C@@H](CO)n1cc(C(=O)O)c(=O)c2cc(Cc3cccc(Cl)c3F)c(OC)cc21` [Example 4-27, 6-(3-Chloro-2-fluorobenzyl)-1-((1S,2S)-1-hydroxymethyl-2-methylbutyl)-7-methoxy-4-oxo-1,4-dihydroquinoline-3-carboxylic acid], the concentration for half-maximal inhibition (IC50) was 2.9 nM.

`O=C(O)c1cn(C2CCC2)c2ccc(Cc3cccc(Cl)c3Cl)cc2c1=O` [Example 3-12, 1-Cyclobutyl-6-(2,3-dichlorobenzyl)-4-oxo-1,4-dihydroquinoline-3-carboxylic acid]: the IC50 worked out at 16 nM.

With `CC(C)Oc1cc2c(cc1Cc1cccc(Cl)c1F)c(=O)c(C(=O)O)cn2[C@H](CO)C(C)C` [Example 4-19, (S)-6-(3-Chloro-2-fluorobenzyl)-1-(1-hydroxymethyl-2-methylpropyl)-7-isopropyloxy-4-oxo-1,4-dihydroquinoline-3-carboxylic acid], the IC50 turned out to be 2.9 nM.

In the case of `CSCCn1cc(C(=O)O)c(=O)c2cc(Cc3cccc(Cl)c3Cl)ccc21` [Example 1-32, 6-(2,3-Dichlorobenzyl)-1-(2-methylsulfanylethyl)-4-oxo-1,4-dihydroquinoline-3-carboxylic acid], the IC50 is 68 nM.

Regarding `CC(C)C[C@@H](CO)n1cc(C(=O)O)c(=O)c2cc(Cc3cccc(Cl)c3F)cc(OC(C)C)c21` [Example 4-25, (S)-6-(3-Chloro-2-fluorobenzyl)-1-(1-hydroxymethyl-3-methylbutyl)-8-isopropyloxy-4-oxo-1,4-dihydroquinoline-3-carboxylic acid], the IC50 turned out to be 1.9 nM.

Consider `CCN(CC)c1ccccc1Cc1ccc2c(c1)c(=O)c(C(=O)O)cn2CCO` [Example 3-42, 6-(2-Diethylaminobenzyl)-1-(2-hydroxyethyl)-4-oxo-1,4-dihydroquinoline-3-carboxylic acid], for which the half-maximal inhibitory concentration (IC50) amounted to 720 nM.

Consider `CC[C@@H](CO)n1cc(C(=O)O)c(=O)c2cc(Cc3cccc(Cl)c3F)c(OC)cc21` [Example 3-73, (S)-6-(3-Chloro-2-fluorobenzyl)-1-[1-(hydroxymethyl)propyl]-7-methoxy-4-oxo-1,4-dihydroquinoline-3-carboxylic acid], for which the half-inhibitory concentration (IC50) came to 3.3 nM.

With `O=C(O)c1cn(Cc2cc3ccccc3s2)c2ccc(Cc3cccc(Cl)c3Cl)cc2c1=O` [Example 1-22, 1-Benzo[b]thiophen-2-ylmethyl-6-(2,3-dichlorobenzyl)-4-oxo-1,4-dihydroquinoline-3-carboxylic acid], the IC50 amounted to 110 nM.

With `CN(n1cc(C(=O)O)c(=O)c2cc(Cc3cccc(Cl)c3Cl)ccc21)S(C)(=O)=O` [Example 2-5, 6-(2,3-Dichlorobenzyl)-1-(N-methanesulfonyl-N-methylamino)-4-oxo-1,4-dihydroquinoline-3-carboxylic acid], the concentration for half-maximal inhibition (IC50) came out at 300 nM.

Take `O=C(O)c1cn(C2CCCC2)c2ccc(Cc3cccc(Cl)c3Cl)cc2c1=O` [Example 3-13, 1-Cyclopentyl-6-(2,3-dichlorobenzyl)-4-oxo-1,4-dihydroquinoline-3-carboxylic acid]: the IC50 was 29 nM.

`CCOc1cc2c(cc1Cc1cccc(Cl)c1F)c(=O)c(C(=O)O)cn2[C@H](CO)[C@@H](C)CC` [Example 4-28, 6-(3-Chloro-2-fluorobenzyl)-7-ethoxy-1-((1S,2S)-1-hydroxymethyl-2-methylbutyl)-4-oxo-1,4-dihydroquinoline-3-carboxylic acid]: the half-inhibitory concentration (IC50) worked out at 2.7 nM.

As to `O=C(O)c1cn(CCCO)c2ccc(Cc3cccc(Cl)c3Cl)cc2c1=O` [Example 1-25, 6-(2,3-Dichlorobenzyl)-1-(3-hydroxypropyl)-4-oxo-1,4-dihydroquinoline-3-carboxylic acid], the IC50 was determined as 160 nM.
